Measurements taken from publication PMC6437697 (Journal of Medicinal Chemistry, 2019).

Legend:
Assay in all cases: KINOMEscan
Format in all cases: binding
Conditions in all cases: read-out: % control activity remaining
KIT-autoinhibited = target: T1, KIT-autoinhibited (Homo sapiens, UniProt P10721)
T1 construct: purchased Eurofins DiscoverX KINOMEscan

SNARK = target: T2, SNARK (Homo sapiens, UniProt Q9H093)
T2 construct: purchased Eurofins DiscoverX KINOMEscan
T2 sequence (Q9H093 1-628): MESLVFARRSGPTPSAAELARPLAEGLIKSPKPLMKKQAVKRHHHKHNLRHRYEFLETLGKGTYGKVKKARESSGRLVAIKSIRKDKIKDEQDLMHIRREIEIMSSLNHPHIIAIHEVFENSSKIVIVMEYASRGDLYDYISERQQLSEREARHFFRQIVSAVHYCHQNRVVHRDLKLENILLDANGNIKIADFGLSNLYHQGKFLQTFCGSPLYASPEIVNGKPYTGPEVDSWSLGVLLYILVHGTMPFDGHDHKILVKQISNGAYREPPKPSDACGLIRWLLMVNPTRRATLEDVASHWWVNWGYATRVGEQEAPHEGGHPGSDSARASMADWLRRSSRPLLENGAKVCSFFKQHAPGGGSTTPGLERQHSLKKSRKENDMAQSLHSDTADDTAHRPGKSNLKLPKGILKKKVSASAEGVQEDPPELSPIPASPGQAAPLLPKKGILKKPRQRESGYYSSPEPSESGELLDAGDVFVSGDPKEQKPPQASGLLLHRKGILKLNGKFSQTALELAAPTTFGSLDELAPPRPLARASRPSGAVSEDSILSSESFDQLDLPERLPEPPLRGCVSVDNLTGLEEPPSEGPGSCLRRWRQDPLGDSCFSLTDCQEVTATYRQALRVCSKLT

AKT3 = target: T3, AKT3 (Homo sapiens, UniProt Q9Y243)
T3 construct: purchased Eurofins DiscoverX KINOMEscan

EGFR(L861Q) = target: T4, EGFR(L861Q) (Homo sapiens, UniProt P00533, L861Q)
T4 construct: purchased Eurofins DiscoverX KINOMEscan

TSSK1B = target: T5, TSSK1B (Homo sapiens, UniProt Q9BXA7)
T5 construct: purchased Eurofins DiscoverX KINOMEscan
T5 sequence (Q9BXA7 1-367): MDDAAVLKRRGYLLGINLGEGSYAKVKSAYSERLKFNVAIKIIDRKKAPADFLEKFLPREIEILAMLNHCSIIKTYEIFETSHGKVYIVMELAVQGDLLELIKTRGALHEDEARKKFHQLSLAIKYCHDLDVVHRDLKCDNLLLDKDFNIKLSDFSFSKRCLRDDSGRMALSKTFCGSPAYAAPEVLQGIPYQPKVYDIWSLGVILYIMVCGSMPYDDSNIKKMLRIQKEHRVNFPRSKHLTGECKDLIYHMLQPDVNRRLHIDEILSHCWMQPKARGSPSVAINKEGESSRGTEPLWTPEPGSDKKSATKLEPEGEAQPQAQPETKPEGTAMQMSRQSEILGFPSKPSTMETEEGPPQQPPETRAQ

EPHA7 = target: T6, EPHA7 (Homo sapiens, UniProt Q15375)
T6 construct: purchased Eurofins DiscoverX KINOMEscan

ACVR1 = target: T7, ACVR1 (Homo sapiens, UniProt Q04771)
T7 construct: purchased Eurofins DiscoverX KINOMEscan
T7 sequence (Q04771 21-509): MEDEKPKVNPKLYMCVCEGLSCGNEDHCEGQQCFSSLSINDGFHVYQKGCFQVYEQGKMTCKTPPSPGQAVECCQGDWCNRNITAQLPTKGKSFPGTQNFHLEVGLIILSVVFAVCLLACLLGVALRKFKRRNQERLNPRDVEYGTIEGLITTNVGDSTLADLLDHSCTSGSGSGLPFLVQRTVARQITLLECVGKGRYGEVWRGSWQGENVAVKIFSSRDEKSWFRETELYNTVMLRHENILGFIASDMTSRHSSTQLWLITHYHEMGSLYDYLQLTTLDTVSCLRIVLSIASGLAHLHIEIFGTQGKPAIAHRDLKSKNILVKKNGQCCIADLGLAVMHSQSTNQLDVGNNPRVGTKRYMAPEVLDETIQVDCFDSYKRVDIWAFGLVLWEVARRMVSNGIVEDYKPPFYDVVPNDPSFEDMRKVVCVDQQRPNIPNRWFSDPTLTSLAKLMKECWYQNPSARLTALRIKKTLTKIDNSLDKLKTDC

[1] = target: T8, TYK2(JH2domain-pseudokinase) (Homo sapiens, UniProt P29597)
T8 construct: TYK2(JH2domain-pseudokinase); purchased Eurofins DiscoverX KINOMEscan

CSF1R = target: T9, CSF1R (Homo sapiens, UniProt P07333)
T9 construct: purchased Eurofins DiscoverX KINOMEscan

PIP5K2C = target: T10, PIP5K2C (Homo sapiens, UniProt Q8TBX8)
T10 construct: purchased Eurofins DiscoverX KINOMEscan
T10 sequence (Q8TBX8 1-421): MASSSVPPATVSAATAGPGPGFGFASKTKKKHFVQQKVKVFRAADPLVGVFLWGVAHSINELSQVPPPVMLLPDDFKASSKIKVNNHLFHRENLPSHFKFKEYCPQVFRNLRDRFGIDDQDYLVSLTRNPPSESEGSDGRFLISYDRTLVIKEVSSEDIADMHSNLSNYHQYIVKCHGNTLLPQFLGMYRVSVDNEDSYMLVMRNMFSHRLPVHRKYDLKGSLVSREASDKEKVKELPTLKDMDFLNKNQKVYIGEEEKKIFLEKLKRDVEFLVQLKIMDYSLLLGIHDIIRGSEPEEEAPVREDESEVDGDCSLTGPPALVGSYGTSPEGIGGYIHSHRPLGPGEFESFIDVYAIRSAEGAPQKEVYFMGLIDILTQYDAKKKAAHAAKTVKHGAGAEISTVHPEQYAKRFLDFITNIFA

T4 sequence (P00533 25-1210 L861Q limits assumed): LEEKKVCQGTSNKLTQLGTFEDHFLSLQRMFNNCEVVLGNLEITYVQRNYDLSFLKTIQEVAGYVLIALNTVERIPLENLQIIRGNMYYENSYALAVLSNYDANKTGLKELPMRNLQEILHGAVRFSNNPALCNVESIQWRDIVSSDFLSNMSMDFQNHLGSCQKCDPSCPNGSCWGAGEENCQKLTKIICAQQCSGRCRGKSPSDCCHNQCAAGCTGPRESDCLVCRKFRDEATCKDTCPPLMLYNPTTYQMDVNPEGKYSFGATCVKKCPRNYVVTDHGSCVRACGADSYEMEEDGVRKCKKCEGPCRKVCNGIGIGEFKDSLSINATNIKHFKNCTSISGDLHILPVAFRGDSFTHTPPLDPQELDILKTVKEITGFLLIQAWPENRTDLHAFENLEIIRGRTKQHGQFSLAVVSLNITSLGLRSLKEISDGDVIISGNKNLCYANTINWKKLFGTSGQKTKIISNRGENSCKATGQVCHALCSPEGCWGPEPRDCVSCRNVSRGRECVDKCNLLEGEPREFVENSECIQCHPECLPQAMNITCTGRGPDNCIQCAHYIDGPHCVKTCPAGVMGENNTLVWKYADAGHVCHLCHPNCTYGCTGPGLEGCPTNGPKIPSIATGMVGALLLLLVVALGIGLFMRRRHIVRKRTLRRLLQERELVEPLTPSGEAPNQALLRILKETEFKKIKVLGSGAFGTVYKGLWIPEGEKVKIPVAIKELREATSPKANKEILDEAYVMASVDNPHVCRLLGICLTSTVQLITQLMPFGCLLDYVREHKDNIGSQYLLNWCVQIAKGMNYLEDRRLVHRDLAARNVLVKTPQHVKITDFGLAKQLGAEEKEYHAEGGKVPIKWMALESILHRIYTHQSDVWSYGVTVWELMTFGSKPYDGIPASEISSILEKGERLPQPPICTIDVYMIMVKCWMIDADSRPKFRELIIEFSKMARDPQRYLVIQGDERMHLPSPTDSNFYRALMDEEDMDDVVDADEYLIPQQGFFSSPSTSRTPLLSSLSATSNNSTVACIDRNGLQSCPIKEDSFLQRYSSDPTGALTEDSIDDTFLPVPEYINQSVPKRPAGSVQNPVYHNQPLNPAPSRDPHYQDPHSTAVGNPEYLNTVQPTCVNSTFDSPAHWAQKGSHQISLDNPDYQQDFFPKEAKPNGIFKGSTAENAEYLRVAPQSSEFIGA
T3 sequence (Q9Y243 whole entry): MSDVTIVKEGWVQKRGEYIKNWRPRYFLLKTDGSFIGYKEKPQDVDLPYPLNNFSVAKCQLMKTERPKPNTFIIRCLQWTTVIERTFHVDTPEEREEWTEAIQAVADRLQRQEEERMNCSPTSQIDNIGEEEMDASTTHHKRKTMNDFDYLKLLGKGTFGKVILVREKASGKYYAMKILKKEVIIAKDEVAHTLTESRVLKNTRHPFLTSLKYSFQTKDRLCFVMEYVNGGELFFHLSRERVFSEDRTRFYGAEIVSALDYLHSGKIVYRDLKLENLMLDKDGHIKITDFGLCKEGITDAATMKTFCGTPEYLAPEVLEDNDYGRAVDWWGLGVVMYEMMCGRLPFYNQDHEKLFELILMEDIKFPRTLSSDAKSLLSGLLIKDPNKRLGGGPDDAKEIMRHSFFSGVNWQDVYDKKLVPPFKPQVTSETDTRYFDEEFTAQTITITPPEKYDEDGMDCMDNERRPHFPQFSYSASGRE
T9 sequence (P07333 20-972): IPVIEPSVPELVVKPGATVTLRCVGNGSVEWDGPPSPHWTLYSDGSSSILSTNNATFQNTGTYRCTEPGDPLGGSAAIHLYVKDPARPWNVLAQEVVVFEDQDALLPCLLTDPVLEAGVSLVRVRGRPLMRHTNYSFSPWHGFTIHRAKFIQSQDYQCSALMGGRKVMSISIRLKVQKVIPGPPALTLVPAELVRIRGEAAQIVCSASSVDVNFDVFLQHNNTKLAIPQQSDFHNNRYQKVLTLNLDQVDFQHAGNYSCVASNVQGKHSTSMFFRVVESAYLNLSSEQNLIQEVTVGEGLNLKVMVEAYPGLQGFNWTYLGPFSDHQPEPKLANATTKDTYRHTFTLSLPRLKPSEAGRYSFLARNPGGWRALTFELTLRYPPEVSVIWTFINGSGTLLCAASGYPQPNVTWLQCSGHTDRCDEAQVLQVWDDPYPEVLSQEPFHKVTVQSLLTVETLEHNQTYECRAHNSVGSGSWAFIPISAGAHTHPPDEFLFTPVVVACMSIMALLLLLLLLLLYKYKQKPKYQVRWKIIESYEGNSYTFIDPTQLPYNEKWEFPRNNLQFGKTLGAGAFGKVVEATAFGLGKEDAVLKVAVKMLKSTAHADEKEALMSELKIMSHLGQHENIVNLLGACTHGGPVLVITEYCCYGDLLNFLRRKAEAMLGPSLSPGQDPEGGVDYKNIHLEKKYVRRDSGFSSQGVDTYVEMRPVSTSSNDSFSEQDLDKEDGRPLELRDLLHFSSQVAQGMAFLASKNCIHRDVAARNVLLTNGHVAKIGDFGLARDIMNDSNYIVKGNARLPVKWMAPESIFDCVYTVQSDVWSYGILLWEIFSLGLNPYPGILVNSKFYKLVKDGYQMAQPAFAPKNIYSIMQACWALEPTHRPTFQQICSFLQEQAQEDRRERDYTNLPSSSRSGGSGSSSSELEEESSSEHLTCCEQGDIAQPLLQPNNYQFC
T1 sequence (P10721 26-976): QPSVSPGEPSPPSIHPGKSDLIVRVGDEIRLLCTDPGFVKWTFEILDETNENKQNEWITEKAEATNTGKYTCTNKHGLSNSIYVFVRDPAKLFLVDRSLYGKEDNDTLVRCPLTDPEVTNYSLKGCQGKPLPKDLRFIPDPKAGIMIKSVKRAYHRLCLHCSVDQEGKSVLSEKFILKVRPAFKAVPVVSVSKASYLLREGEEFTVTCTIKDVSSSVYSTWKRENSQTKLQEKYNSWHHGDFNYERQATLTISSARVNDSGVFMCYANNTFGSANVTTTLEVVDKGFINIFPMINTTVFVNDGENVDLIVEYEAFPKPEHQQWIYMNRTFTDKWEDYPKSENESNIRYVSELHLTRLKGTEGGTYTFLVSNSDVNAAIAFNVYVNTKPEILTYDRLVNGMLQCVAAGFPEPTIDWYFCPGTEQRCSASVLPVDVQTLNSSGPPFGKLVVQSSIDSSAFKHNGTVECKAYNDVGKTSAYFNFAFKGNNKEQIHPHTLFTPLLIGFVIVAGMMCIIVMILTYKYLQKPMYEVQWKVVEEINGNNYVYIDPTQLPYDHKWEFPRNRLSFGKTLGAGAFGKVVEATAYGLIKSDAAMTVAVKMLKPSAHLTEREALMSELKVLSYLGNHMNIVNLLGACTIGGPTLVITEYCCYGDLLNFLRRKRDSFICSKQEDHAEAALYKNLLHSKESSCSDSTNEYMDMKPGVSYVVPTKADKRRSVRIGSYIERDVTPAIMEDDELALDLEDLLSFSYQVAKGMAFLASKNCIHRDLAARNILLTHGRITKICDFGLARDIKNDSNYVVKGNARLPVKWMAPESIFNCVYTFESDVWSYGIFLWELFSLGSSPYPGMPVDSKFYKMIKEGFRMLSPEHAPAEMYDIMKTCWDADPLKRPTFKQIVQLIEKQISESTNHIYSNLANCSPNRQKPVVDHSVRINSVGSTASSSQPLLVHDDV
T6 sequence (Q15375 28-998): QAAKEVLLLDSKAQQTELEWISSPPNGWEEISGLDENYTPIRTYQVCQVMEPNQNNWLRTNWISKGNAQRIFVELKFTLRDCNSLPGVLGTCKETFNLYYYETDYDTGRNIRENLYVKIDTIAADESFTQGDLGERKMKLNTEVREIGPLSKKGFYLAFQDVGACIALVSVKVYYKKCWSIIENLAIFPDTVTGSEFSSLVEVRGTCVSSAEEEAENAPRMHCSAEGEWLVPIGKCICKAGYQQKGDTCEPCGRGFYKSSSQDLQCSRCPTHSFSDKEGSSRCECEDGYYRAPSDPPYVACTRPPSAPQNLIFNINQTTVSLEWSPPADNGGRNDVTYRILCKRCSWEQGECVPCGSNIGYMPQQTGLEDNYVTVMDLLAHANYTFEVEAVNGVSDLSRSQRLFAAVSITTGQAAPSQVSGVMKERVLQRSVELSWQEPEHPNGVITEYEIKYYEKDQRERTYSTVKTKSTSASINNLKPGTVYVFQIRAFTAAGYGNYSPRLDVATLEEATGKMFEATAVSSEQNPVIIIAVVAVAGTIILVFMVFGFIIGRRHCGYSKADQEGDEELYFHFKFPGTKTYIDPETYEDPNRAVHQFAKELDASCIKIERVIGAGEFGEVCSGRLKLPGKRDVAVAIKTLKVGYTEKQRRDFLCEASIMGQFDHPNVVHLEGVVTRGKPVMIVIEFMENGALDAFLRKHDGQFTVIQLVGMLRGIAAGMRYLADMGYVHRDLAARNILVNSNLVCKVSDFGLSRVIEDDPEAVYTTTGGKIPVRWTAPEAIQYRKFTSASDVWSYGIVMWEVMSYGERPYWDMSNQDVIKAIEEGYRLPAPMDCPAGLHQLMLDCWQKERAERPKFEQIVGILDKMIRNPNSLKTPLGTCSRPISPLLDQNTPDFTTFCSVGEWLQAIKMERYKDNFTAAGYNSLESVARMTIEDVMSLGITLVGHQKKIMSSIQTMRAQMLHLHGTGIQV
T8 sequence (P29597 556-888 limits assumed): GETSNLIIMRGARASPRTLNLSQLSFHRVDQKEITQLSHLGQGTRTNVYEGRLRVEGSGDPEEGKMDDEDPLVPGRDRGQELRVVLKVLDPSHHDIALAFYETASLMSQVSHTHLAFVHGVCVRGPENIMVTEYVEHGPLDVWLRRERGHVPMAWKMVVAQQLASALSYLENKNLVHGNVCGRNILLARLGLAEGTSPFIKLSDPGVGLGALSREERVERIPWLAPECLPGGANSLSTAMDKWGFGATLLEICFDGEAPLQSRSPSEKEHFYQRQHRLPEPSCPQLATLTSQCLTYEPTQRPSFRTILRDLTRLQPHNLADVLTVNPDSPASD

Row | SMILES | remaining binding at 1 µM (KIT-autoinhibited) [%] | remaining binding at 1 µM (SNARK) [%] | remaining binding at 1 µM (AKT3) [%] | remaining binding at 1 µM (EGFR(L861Q)) [%] | remaining binding at 1 µM (TSSK1B) [%] | remaining binding at 1 µM (EPHA7) [%] | remaining binding at 1 µM (ACVR1) [%] | remaining binding at 1 µM [1] [%] | remaining binding at 1 µM (CSF1R) [%] | remaining binding at 1 µM (PIP5K2C) [%]
1 | Clc1cc(NCC2CC2)c2ncc(-c3ccc4[nH]ncc4c3)n2n1 [compound 2, 6-Chloro-N-(cyclopropylmethyl)-3-(1H-indazol-5-yl)imidazo[1,2-b]pyridazin-8-amine] | 82 | 99 | 100 | 82 | 100 | 94 | 90 | 91 | 79 | 67
2 | O=C(CN1CCOCC1)N[C@H]1CC[C@H](Nc2cc(Cl)nn3c(-c4ccc5[nH]ncc5c4)cnc23)CC1 [compound 26] | 34 | 73 | 100 | 100 | 92 | 97 | 95 | 99 | 21 | 93
3 | CN1CCC(CNc2cc(Cl)nn3c(-c4cc5nc(Nc6ccccc6)[nH]c5cc4F)cnc23)CC1 [compound 31, 6-Chloro-3-(6-fluoro-2-(phenylamino)-1H-benzo[d]imidazol-5-yl)-N-((1-methylpiperidin-4-yl)methyl)imidazo[1,2-b]pyridazin-8-amine] | 98 | 88 | 90 | 100 | 88 | 94 | 99 | 73 | 60 | 100
